{"source": "patent US12121027B2", "about": "“Herbicidal combinations” (UPL LTD, priority 2018, dated 2024)", "key": {"Chenopodium album": {"test_system": "Chenopodium album", "experiment": "Herbicidal mixture trial, percentage weed control", "assay_type": "in vivo", "conditions": "Pinoxaden 46 g/ha, Metribuzin 280 g/ha, 2,4-D 500 g/ha", "description": "(§1) Trials were carried out for evaluating the herbicidal mixtures of the invention on different weeds. The percentage control was calculated from the observed percent weed coverage data after 15 DAA and 30 DAA."}, "Phalaris minor": {"test_system": "Phalaris minor", "experiment": "Herbicidal mixture trial, percentage weed control", "assay_type": "in vivo", "conditions": "Pinoxaden 46 g/ha, Metribuzin 280 g/ha, 2,4-D 500 g/ha", "description": "as §1"}, "[1]": {"conditions": "15 DAA, combination 64 g/ha + 725 g/ha + 280 g/ha"}, "[2]": {"conditions": "30 DAA, combination 64 + 725 + 280"}}}
{"smiles": "O=C(O)COc1ccc(Cl)cc1Cl", "note": "[2,4-D]", "values": [{"measurement": "percentage control, Actual", "setting": "Chenopodium album; [1]", "result": 90.3, "unit": "%"}, {"measurement": "percentage control, Actual", "setting": "Chenopodium album; [2]", "result": 86, "unit": "%"}, {"measurement": "percentage control, Actual", "setting": "Phalaris minor; [1]", "result": 29, "unit": "%"}, {"measurement": "percentage control, Actual", "setting": "Phalaris minor; [2]", "result": 30.2, "unit": "%"}]}
{"smiles": "CSc1nnc(C(C)(C)C)c(=O)n1N", "note": "[Metribuzin]", "values": [{"measurement": "percentage control, Actual", "setting": "Chenopodium album; [1]", "result": 78, "unit": "%"}, {"measurement": "percentage control, Actual", "setting": "Chenopodium album; [2]", "result": 88, "unit": "%"}, {"measurement": "percentage control, Actual", "setting": "Phalaris minor; [1]", "result": 67.4, "unit": "%"}, {"measurement": "percentage control, Actual", "setting": "Phalaris minor; [2]", "result": 73.8, "unit": "%"}]}
{"smiles": "CCc1cc(C)cc(CC)c1-c1c(OC(=O)C(C)(C)C)n2n(c1=O)CCOCC2", "note": "[Pinoxaden, N 8-(2,6-diethyl-p-tolyl)-1,2,4,5-tetrahydro-7-oxo-7H-pyrazolo[1,2-d][1,4,5]oxadiazepin-9-yl 2,2-dimethylpropionate]", "values": [{"measurement": "percentage control, Actual", "setting": "Chenopodium album; [1]", "result": 68, "unit": "%"}, {"measurement": "percentage control, Actual", "setting": "Chenopodium album; [2]", "result": 85.3, "unit": "%"}, {"measurement": "percentage control, Actual", "setting": "Phalaris minor; [1]", "result": 53.4, "unit": "%"}, {"measurement": "percentage control, Actual", "setting": "Phalaris minor; [2]", "result": 73.6, "unit": "%"}]}
